According to patent US7250438B2, “Anti-bacterial and anti-cancer spiro beta-lactone/gamma-lactams” (Nereus Pharmaceuticals, Inc., priority 2004, dated 2007):

Legend:
E. coli - imp = test: MIC, serial micro broth dilution (NCCLS M7-A5); format: cell-based; settings: Escherichia coli, 18 h
Procedure: (§1) Minimum inhibitory concentrations (MICs) were determined according to the National Committee for Clinical Laboratory Standards (NCCLS) susceptibility test guideline M7-A5 to quantify the anti-microbial activity of the compound of Formula (VI) against both gram-positive and gram-negative bacteria. Ferraro, M. 2001 Methods for Dilution Antimicrobial Susceptibility Tests for Bacteria that Grow Aerobically; Approved Standard (NCCLS), Villanova, which is incorporated herein by reference in its entirety. The serial micro broth dilution method used BBL Mueller-Hinton broth (cation adjusted) except for the […] which was tested in BBL Mueller-Hinton broth II (cation adjusted) with lysed horse blood. The final bacterial inoculum contained approximately 5×10^5 CFU/ml and was run on microtiter plates. The volume of each well was 100 μl and the plates were incubated at 35° C. for 18 hours. The MIC was defined as the lowest drug concentration that prevented visible growth of the bacterium. The compound was active versus several microorganisms, especially gram-positive species.

E. faecalis - Van^s = test: MIC, serial micro broth dilution (NCCLS M7-A5); format: cell-based; settings: Enterococcus faecalis, Mueller-Hinton broth, 35° C., 18 hours
Procedure: as §1

E. faecium - Van^r = test: MIC, serial micro broth dilution (NCCLS M7-A5); format: cell-based; settings: Enterococcus faecium, Mueller-Hinton broth, 35° C., 18 hours
Procedure: as §1

[1] = tested on: Staphylococcus aureus - MRSA; test: MIC, serial micro broth dilution (NCCLS M7-A5); format: cell-based; settings: Mueller-Hinton broth, 35° C., 18 hours
Procedure: as §1

[2] = tested on: Staphylococcus aureus - MSSA; test: MIC, serial micro broth dilution (NCCLS M7-A5); format: cell-based; settings: Mueller-Hinton broth, 35° C., 18 hours
Procedure: as §1

[3] = tested on: Streptococcus pneumoniae - penicillin resistant; test: MIC, serial micro broth dilution (NCCLS M7-A5); format: cell-based; settings: Mueller-Hinton broth II with lysed horse blood, 35° C., 18 hours
Procedure: as §1

[4] = tested on: Streptococcus pneumoniae - penicillin sensitive; test: MIC, serial micro broth dilution (NCCLS M7-A5); format: cell-based; settings: Mueller-Hinton broth II with lysed horse blood, 35° C., 18 hours
Procedure: as §1

B16-F10 cells = test: Growth inhibition of murine melanoma B16-F10 cells (Resazurin); format: cell-based; settings: Mus musculus, 48 hours of drug exposure
Procedure: B16-F10 (ATCC; CRL-6475) a murine melanoma cell line was maintained in complete Dulbecco's Modification of Eagle's Medium (DMEM) (DMEM supplemented with 10% (v/v) Fetal bovine serum, 2 mM glutamine, 10 mM HEPES and Penicillin/Streptomycin at 100 IU/ml and 100 μg/ml respectively). The cells were cultured in an incubator at 37° C, 5% CO2 and 95% humidified air.
For cell growth inhibition assays, B16-F10 cells were seeded at 1.25×10^3 cells/well in 90 μl complete media into Coming 3904 black-walled, clear-bottom tissue culture plates and the plates were incubated overnight to allow cells to establish and enter log phase growth. 20mM stock solutions of the compound of Formula (VI) were prepared in 100% DMSO. 10× concentrated serial dilutions of the compound of Formula (VI) were prepared in appropriate culture medium. […]
Following 48 hours of drug exposure, 10 μl of 0.2 mg/ml Resazurin (obtained from Sigma-Aldrich Chemical Co.) in Mg^2+, Ca^2+ free phosphate buffered saline was added to each well and the plates were returned to the incubator for 3–6 hours. Since living cells metabolize Resazurin, the fluorescence of the reduction product of Resazurin was measured using a Fusion microplate fluorometer (Packard Bioscience) with λex=535 nm and λem=590 nm filters. […]

[5] = Qualitative solubility of the isolated compound; format: physicochemical; settings: CHCl3, MeOH, and DMSO

COC(CC(C)C(O)/C=C/C=C/CNC(=O)C(C)(C)C(O)\C(C)=C/C=C\C=C\C(C)=C(/C)[N+](=O)[O-])C1(O)C(C)C(=O)N(C)C12C(=O)OC2C (stereo not drawn) [Formula (VI)]
MIC (E. coli - imp): 12 µg/mL
MIC (E. faecalis - Van^s): 14 µg/mL
MIC (E. faecium - Van^r): 20 µg/mL
MIC [1]: 5 µg/mL
MIC [2]: 4 µg/mL
MIC [3]: 1.5 µg/mL
MIC [4]: 2 µg/mL
EC50 (B16-F10 cells): 9.6 µM
solubility (qualitative) [5]: qualitatively soluble in CHCl3, MeOH, and DMSO
